Experimental data taken from patent US7749967B2, “Peptides of a melanoma antigen and their use in diagnostic, prophylactic, and therapeutic methods” (The United States of America as represented by the …, priority 2001, dated 2010).

Test system: gp100170-190-specific T cell clone (HLA-DRβ1*0701 restricted)
Test: IFN-γ release by gp100-specific CD4+ T cell clones co-cultured with EBV-B cells pulsed with peptide or protein (ELISA)
Format: cell-based, human
Settings: for Gp100 Peptide Identification (IFN-γ; pg/ml) 10 μM: peptide pulsed at 10 μM on EBV-B cells; for Gp100 Peptide Identification (IFN-γ; pg/ml) 10 μM / Gp100 Peptide Identification (IFN-γ; pg/ml) 50 μM: 24 h co-culture with T cell clone; for Gp100 Peptide Identification (IFN-γ; pg/ml) 50 μM: peptide pulsed at 50 μM on EBV-B cells
From the text: The reactivity of nine representative positive clones is presented in FIG. 1A along with 4 representative negative wells (neg1 to neg4). Eight of the 46 positive clones were expanded and further characterized. […] To further characterize the reactivity, some of the clones were co-cultured with autologous B cells pulsed with a bacterially produced gp100 protein. […] In order to identify the MHC restriction element, antibodies known to bind and block the presentation by defined MHC molecules were used. Recognition by clones 6 and 8 of target cells pulsed with the gp100 protein was inhibited when using blocking antibodies against MHC class II and HLA-DR but the recognition was unchanged when using a blocking MHC class I antibody. […] By using HLA-DR matched B cells, the restriction element was identified as HLA-DRβ1*0701 (patient A is HLA-DRβ1*0701 and *1601; FIG. 2).
To find the epitope recognized, an overlapping gp100 peptide library consisting of 68 peptides of 17 or 21 residues overlapping by 10-12 amino acids was prepared. The autologous EBV-B cells were pulsed with the peptide library and used as targets in a T cell recognition assay using three different T cell clones.
Finally, several peptides were synthesized in order to define an optimal HLA-DRβ1*0701 epitope (Rammensee, H. G. Immunogenetics 41:178-228, 1995; Chicz et al. J. Exp. Med. 178:27-47, 1993). […] Finally, substitutions were made at position 5 of the gp100174-394 peptide presuming that this is position 1 according to the defined motif for HLA-DRβ1*0701 (SYFPEITHI web site, http://syfpeithi.de/). However, none of the peptides were better recognized when pulsed at 10 μM or 1 μM compared to the wild type gp100174-394 peptide.
The gp100 peptide library consisted of 68 peptides of 17 to 21 residues overlapping by 10 to 12 amino acids. The peptides were synthesized by solid phase FMOC methodology as previously described (Parkhurst et al. J. Immunol. 157:2539-2548, 1996). A control peptide derived from the Ig kappa chain known to bind to HLA-DRβ1*0701 was also prepared (Chicz et al. J. Exp. Med. 178:27-47, 1993). Recombinant gp100 protein was made and purified as previously described Touloukian et al. J. Immunol. 164:3535-3542, 2000). Recombinant NY-ESO-1 protein is another tumor antigen (Chen, Y T and L J Old. Cancer J. Sci. Am. 5:16-17, 1999) used as negative control and was made and purified as previously described (Zeng et al. J. Immunol. 165:1153-1159, 2000). EBV-B cells (1×10^5) were pulsed with gp100-purified protein or peptides for 18 hours in 96 well flat-bottom plates and T cells were added directly to the pulsed-B cells for a 24 hours recognition assay. In some experiments, EBV-B cells (5×10^5) were pulsed in 48 well plates for 18 hours and cells were washed twice with PBS. T cells were then co-cultured with the pulsed EBV-B cells in 96 well flat-bottom plates for 24 hours. Supernatants were harvested and human IFN-γ was assayed by ELISA using a commercially available kit (R&D Inc.).
Fifty to one hundred thousand responder cells and 4×10^4-10^5 stimulator cells were mixed in 300 ul of AIM-V medium containing […] IL-2 per well in a 96 flat-well microplate. Target cells (1×10^5) were incubated with 1×10^5 specific T cells in 250 μl of T cell medium (AIM-V-based medium) in 96 well flat-bottom plates. Supernatants were harvested after 24 h and human IFN-γ was assayed by ELISA using a commercially available kit (R&D, Inc.; Minneapolis, Minn.).

GTGRAMLGTHTMEVTVYH [SEQ ID NO:10]
Gp100 Peptide Identification (IFN-γ; pg/ml) 10 μM: 18,770 pg/ml
Gp100 Peptide Identification (IFN-γ; pg/ml) 50 μM: >25,000 pg/ml

GTGRAMLGTHTMEVTVYHRRG [SEQ ID NO:9]
Gp100 Peptide Identification (IFN-γ; pg/ml) 10 μM: 22,910 pg/ml
Gp100 Peptide Identification (IFN-γ; pg/ml) 50 μM: >25,000 pg/ml

IGTGRAMLGTHTMEVTVYH [SEQ ID NO:11]
Gp100 Peptide Identification (IFN-γ; pg/ml) 10 μM: 17,590 pg/ml
Gp100 Peptide Identification (IFN-γ; pg/ml) 50 μM: >25,000 pg/ml

IGTGRAMLGTHTMEVTVYHRR [SEQ ID NO:4]
Gp100 Peptide Identification (IFN-γ; pg/ml) 10 μM: 17,050 pg/ml
Gp100 Peptide Identification (IFN-γ; pg/ml) 50 μM: >25,000 pg/ml

LSIGTGRAMLGTHTMEVTVYH [SEQ ID NO:3]
recognition in overlapping gp100 peptide library screen (68 peptides, all at 100 μM, autologous EBV-B cells, one of three T cell clones, FIG. 3A): specifically recognized
peptide concentration below which recognition was undetectable (titration) (gp100170-190-specific T cell clone, peptide pulsed on EBV-B cells, FIG. 3B): 4 to 10 µM
Gp100 Peptide Identification (IFN-γ; pg/ml) 10 μM: 21,000 pg/ml
Gp100 Peptide Identification (IFN-γ; pg/ml) 50 μM: >25,000 pg/ml

MLGTHTMEVTVYHRRGSRSYV [SEQ ID NO:16]
Gp100 Peptide Identification (IFN-γ; pg/ml) 10 μM: 52 pg/mL
Gp100 Peptide Identification (IFN-γ; pg/ml) 50 μM: 5,940 pg/ml

PVSGLSIGTGRAMLGTHTMEV [SEQ ID NO:20]
Gp100 Peptide Identification (IFN-γ; pg/ml) 10 μM: <8 pg/mL
Gp100 Peptide Identification (IFN-γ; pg/ml) 50 μM: 19 pg/mL

RAMLGTHTMEVTVYHRRGSRS [SEQ ID NO:15]
Gp100 Peptide Identification (IFN-γ; pg/ml) 10 μM: 912 pg/mL
Gp100 Peptide Identification (IFN-γ; pg/ml) 50 μM: 15,230 pg/ml

SGLSIGTGRAMLGTHTMEVTV [SEQ ID NO:14]
Gp100 Peptide Identification (IFN-γ; pg/ml) 10 μM: 1,655 pg/ml
Gp100 Peptide Identification (IFN-γ; pg/ml) 50 μM: 4,200 pg/ml

SIGTGRAMLGTHTMEVTVYH [SEQ ID NO:12]
Gp100 Peptide Identification (IFN-γ; pg/ml) 10 μM: 20,710 pg/ml
Gp100 Peptide Identification (IFN-γ; pg/ml) 50 μM: >25,000 pg/ml

SIGTGRAMLGTHTMEVTVYHR [SEQ ID NO:13]
Gp100 Peptide Identification (IFN-γ; pg/ml) 10 μM: 12,210 pg/ml
Gp100 Peptide Identification (IFN-γ; pg/ml) 50 μM: >25,000 pg/ml

TGRAFLGTHTMEVTVYHRRGS [SEQ ID NO:17]
Gp100 Peptide Identification (IFN-γ; pg/ml) 10 μM: 19,390 pg/ml
Gp100 Peptide Identification (IFN-γ; pg/ml) 50 μM: >25,000 pg/ml

TGRALLGTHTMEVTVYHRRGS [SEQ ID NO:18]
Gp100 Peptide Identification (IFN-γ; pg/ml) 10 μM: 23,140 pg/ml
Gp100 Peptide Identification (IFN-γ; pg/ml) 50 μM: >25,000 pg/ml

TGRAMLGTHTMEVTVYH [SEQ ID NO:2]
Gp100 Peptide Identification (IFN-γ; pg/ml) 10 μM: 14,010 pg/ml
Gp100 Peptide Identification (IFN-γ; pg/ml) 50 μM: >25,000 pg/ml

TGRAMLGTHTMEVTVYHR [SEQ ID NO:6]
Gp100 Peptide Identification (IFN-γ; pg/ml) 10 μM: 11,100 pg/ml
Gp100 Peptide Identification (IFN-γ; pg/ml) 50 μM: >25,000 pg/ml

TGRAMLGTHTMEVTVYHRR [SEQ ID NO:7]
Gp100 Peptide Identification (IFN-γ; pg/ml) 10 μM: 11,550 pg/ml
Gp100 Peptide Identification (IFN-γ; pg/ml) 50 μM: >25,000 pg/ml

TGRAMLGTHTMEVTVYHRRG [SEQ ID NO:8]
Gp100 Peptide Identification (IFN-γ; pg/ml) 10 μM: 17,910 pg/ml
Gp100 Peptide Identification (IFN-γ; pg/ml) 50 μM: >25,000 pg/ml

TGRAMLGTHTMEVTVYHRRGS [SEQ ID NO:5]
Gp100 Peptide Identification (IFN-γ; pg/ml) 10 μM: 17,140 pg/ml
Gp100 Peptide Identification (IFN-γ; pg/ml) 50 μM: >25,000 pg/ml

TGRAYLGTHTMEVTVYHRRGS [SEQ ID NO:19]
Gp100 Peptide Identification (IFN-γ; pg/ml) 10 μM: 11,640 pg/ml
Gp100 Peptide Identification (IFN-γ; pg/ml) 50 μM: >25,000 pg/ml
